Test results published in paper PMC7696940, “Effects of Rationally Designed Physico-Chemical Variants of the Peptide PuroA on Biocidal Activity towards Bacterial and Mammalian Cells” (International Journal of Molecular Sciences, 2020).
Values after ≈ are worked out from the molar mass of the structure shown. Where no end group is shown, it is not given here.

Tests used:
C. albicans FRR 5580 = type: cell-based, Candida albicans; conditions: PDB, overnight; mode of three independent experiments
Protocol: The assay was carried out as per Alfred et al.. Candida albicans (FRR 5580) was grown in potato dextrose broth (PDB; Difco-BD, Bergen County, NJ, USA) overnight at 30 °C with shaking (200 rpm) until exponential phase, then adjusted to 0.5 McFarland turbidity standard (approximately 1 × 10^6 cells/mL) and diluted 1:200 with PDB to 0.5 − 2 × 10^3 cells/mL. Peptides in 25 μL volumes were mixed with 75 μL of the yeast suspensions. The controls were included as above. The plates were incubated overnight and absorbance was recorded. All the tests were conducted in triplicate.

HeLa cells = type: cell-based, human; conditions: MTT, 24 h, peptide up to 250 µg/mL; concentration causing 50% cell growth inhibition; mean of triplicate assays
Protocol: (§1) Cytotoxicity to human cervical carcinoma HeLa cells and mouse fibroblastic NIH-3T3 cells was determined using the MTT assay as per Scudiero et al. with minor modifications. The cells were maintained in Dulbecco’s Modified Eagle Medium (DMEM) with 10% foetal bovine serum (FBS) and 1% penicillin G in a humidified incubator (Heraeus Hera Cell incubator) at 37 °C with 5% CO2. They were seeded in 96-well microtiter plates at 1 × 10^4 cells/well and allowed to adhere for 24 h in the incubator. The medium was removed, and adherent cells were washed with PBS. Fresh media containing serially diluted peptides in PBS (final concentrations 4 to 250 µg/mL) were added and the cells incubated for 24 h. Cells without peptides were used as negative controls. Following incubations, the medium was removed, and adherent cells were washed with PBS. 150 µL of MTT (diluted to 0.33 mg/mL in DMEM) and the plates incubated for 3 h. The precipitated formazan was dissolved in 100 µL of DMSO and its absorbance measured at 570 nm. Cell viability was determined as: (OD570 nm peptide treated cells/(OD570 nm untreated cells) × 100. Positive cytotoxicity was defined as peptide concentration that causes 50% growth inhibition in a cell line (IC50). All tests were carried out in triplicate.

S. aureus ATCC25923 = type: cell-based, Staphylococcus aureus; conditions: MHB; for MIC S. aureus, No NaCl: 0 mM NaCl; for MIC S. aureus, No NaCl / MIC S. aureus, With 50mM NaCl / MIC S. aureus, With 100mM NaCl / MIC S. aureus, With 150mM NaCl: triplicate, mode; for MIC S. aureus ATCC25923: 37 °C overnight, A595, mode of three independent experiments
Protocol: (§2) The activity of peptides was determined against the Gram-positive Staphylococcus aureus (ATCC 25923), and the Gram-negative Escherichia coli (ATCC 25922) and Pseudomonas aeruginosa (ATCC 9027) bacteria. Selected peptides were also tested against two clinical isolates of methicillin-resistant Staphylococcus aureus (MRSA), M173525 and M180920, kindly provided by Dr P. B. Ward (Microbiology Department, Austin and Repatriation Medical Centre, Heidelberg West, Victoria, Australia). The Minimum inhibitory concentration (MIC) of peptides was determined by the microtitre broth dilution method, as described in Phillips et al.. Briefly, bacteria were grown in Mueller-Hinton Broth (MHB) at 37 °C overnight with shaking (200 rpm). The cultures were adjusted to 0.5 McFarland turbidity standard (approximately 1 × 10^8 colony forming units (CFU)/mL), then diluted 1:100 in MHB (1 × 10^6 CFU/mL). A total of 75 μL of these suspensions were mixed with 25 μL of peptide solutions (final concentrations 250 to 0.5 μg/mL) and the microtitre plates incubated overnight at 37 °C. Positive growth controls (inoculum and MHB, with no peptide) and sterility controls (0.01% glacial acetic) were also included. Post-incubations, the absorbance of cultures at 595 nm was measured using a microplate reader (POLARstar Omega, Germany). […] To evaluate salt sensitivity of peptides up to physiological levels (150 mM NaCl), overnight cultures of S. aureus and E. coli adjusted to 0.5 McFarland turbidity standard were diluted 1:100 in MHB containing 0, 50, 100 or 150 mM NaCl, and the MICs of peptides determined as above. All tests were conducted in triplicate. The results are shown as the mode of values obtained.

E. coli ATCC25922 = type: cell-based, Escherichia coli; conditions: MHB; for MIC E. coli, No NaCl: 0 mM NaCl; for MIC E. coli, No NaCl / MIC E. coli, With 50mM NaCl / MIC E. coli, With 100mM NaCl / MIC E. coli, With 150mM NaCl: triplicate, mode; for MIC E. coli ATCC25922: 37 °C overnight, A595, mode of three independent experiments
Protocol: as §2

P. aeruginosa ATCC9027 = type: cell-based, Pseudomonas aeruginosa; conditions: MHB, 37 °C overnight, A595; mode of three independent experiments
Protocol: as §2

NIH-3T3 cells = assay: Cytotoxicity, MTT assay; type: cell-based, mouse; conditions: 24 h; for IC50 NIH-3T3: peptide up to 250 µg/mL, concentration causing 50% cell growth inhibition, mean of triplicate assays
Protocol: as §1

E. coli and S. aureus = assay: Salt tolerance (MICs under 0-150 mM NaCl, summary); type: cell-based, Escherichia coli; Staphylococcus aureus; design: key: Up to 50 mM: no effects on antibacterial activity up to 50 mM NaCl but increase in the MICs for E. coli and S. aureus at 100 mM NaCl; Intolerant: not resistant to salt effects even at 50 mM NaCl; Up to 150 mM: no effects on antibacterial activity up to 150 mM NaCl; conditions: MICs for E. coli and S. aureus in MHB with 0, 50, 100 or 150 mM NaCl
Protocol: as §2

[1] = tested on: pBlueScript SK+ plasmid DNA; assay: In vitro DNA-binding assay (gel retardation); conditions: 100 ng pBlueScript SK+, peptide 8-500 µg/mL, 1 h room temperature, 1% agarose
Protocol: The ability of peptides to bind to purified DNA (indicative of in vivo DNA binding potential) was tested by the modified gel retardation assay developed by Alfred et al.. The DNA of pBlueScript SK+ (100 ng) was incubated with peptides (to final concentrations of 8, 16, 32, 64, 125, 250 or 500 µg/mL) in 15 µL volumes made with sterile MilliQ water, the held at room temperature for 1h. Loading dye was added to each sample and the samples electrophoresed on 1% agarose gels. The gels were then immersed in ethidium bromide ([…]) then visualized and imaged

Row | Molecule | MIC C. albicans FRR 5580 (C. albicans FRR 5580) [µg/mL] | IC50 HeLa (HeLa cells) [µg/mL] | MIC S. aureus, No NaCl (S. aureus ATCC25923) [µg/mL] | MIC S. aureus, With 50mM NaCl (S. aureus ATCC25923) [µg/mL] | MIC S. aureus, With 100mM NaCl (S. aureus ATCC25923) [µg/mL] | MIC S. aureus, With 150mM NaCl (S. aureus ATCC25923) [µg/mL] | MIC S. aureus ATCC25923 (S. aureus ATCC25923) [µg/mL] | MIC E. coli, No NaCl (E. coli ATCC25922) [µg/mL] | MIC E. coli, With 50mM NaCl (E. coli ATCC25922) [µg/mL] | MIC E. coli, With 100mM NaCl (E. coli ATCC25922) [µg/mL] | MIC E. coli, With 150mM NaCl (E. coli ATCC25922) [µg/mL] | MIC E. coli ATCC25922 (E. coli ATCC25922) [µg/mL] | MIC P. aeruginosa ATCC9027 (P. aeruginosa ATCC9027) [µg/mL] | IC50 NIH-3T3 (NIH-3T3 cells) [µg/mL] | Salt Tolerance (E. coli and S. aureus) | Binding to DNA in vitro (concentration inhibiting plasmid migration) [1] [µg/mL] | Cytotoxicity to NIH-3T3 mouse fibroblasts (in words) (NIH-3T3 cells; up to 250 µg/mL)
1 | CC(C)[C@H](NC(=O)[C@@H]1CCCN1C(=O)[C@@H](N)Cc1ccccc1)C(=O)N[C@H](C(=O)N[C@@H](Cc1c[nH]c2ccccc12)C(=O)N[C@@H](CCCNC(=N)N)C(=O)N[C@@H](Cc1c[nH]c2ccccc12)C(=O)N[C@@H](Cc1c[nH]c2ccccc12)C(=O)N[C@@H](CCCCN)C(=O)N[C@@H](Cc1c[nH]c2ccccc12)C(=O)N[C@@H](Cc1c[nH]c2ccccc12)C(=O)N[C@@H](CCCCN)C(=O)NCC(N)=O)[C@@H](C)O [PuroA] | 125 (≈ 67.1 µM) | >250 | 16 (≈ 8.59 µM) | 16 (≈ 8.59 µM) | 32 (≈ 17.2 µM) | 64 (≈ 34.4 µM) | 16 (≈ 8.59 µM) | 16 (≈ 8.59 µM) | 16 (≈ 8.59 µM) | 32 (≈ 17.2 µM) | 64 (≈ 34.4 µM) | 16 (≈ 8.59 µM) | 64 (≈ 34.4 µM) | 250 (≈ 134 µM) |  |  | 
2 | RKRWWRWWKWWKR-NH2 [Peptide P1] | 64 | 32 | 16 | 16 | 16 | 16 |  | 16 | 16 | 16 | 16 |  | 16 | 250 | Up to 150 mM |  | 
3 | WRWWKWW-NH2 [Peptide W7] | 64 | 250 | 8 | 8 | 8 | 8 | 8 | 4 | 4 | 4 | 4 | 4 | 32 | 250 | Up to 150 mM | ≥ 16 | 
4 | WWRWWKWW-NH2 [WW] | 64 | 250 | 8 | 8 | 8 | 8 | 8 | 8 | 8 | 8 | 8 | 8 | 32 | >250 |  |  | no cytotoxicity
